Reference: EPA's ToxRefDB 2

Experiments:
rabbit [1] = conditions: Prenatal developmental toxicity study, new zealand white, Oral, Gavage/Intubation, dose end: 18 GD
rabbit [2] = conditions: Prenatal developmental toxicity study, new zealand white, Oral, Gavage/Intubation, dose end: 18 GD; remark: listed apart in the source
dog [3] = conditions: Chronic toxicity, beagle, Oral, Gavage/Intubation, dose end: 6 month, group: systemic
rat [4] = conditions: Sub-acute repeat dose toxicity, sprague dawley, Oral, Gavage/Intubation, dose end: 4 week, group: systemic
dog [5] = conditions: Sub-acute repeat dose toxicity; beagle; Oral; Gavage/Intubation; dose end: 4 week; group: systemic; systemic / in life observation / body weight / body weight gain + systemic / in life observation / clinical signs / abnormal feces + …
mouse = conditions: Subchronic oral toxicity in rodents, cd1, Gavage/Intubation, dose end: 3 month, group: systemic
rat [6] = conditions: Fertility (Segment I), sprague dawley, Oral, Gavage/Intubation, dose end: 7 GD, group: parental
rat [7] = conditions: Prenatal developmental toxicity study; sprague dawley; Oral; Gavage/Intubation; dose end: 17 GD; group: maternal; systemic / in life observation / body weight / body weight gain
rat [8] = conditions: Chronic toxicity, sprague dawley, Oral, Gavage/Intubation, dose end: 6 month, group: systemic
rat [9] = conditions: Prenatal developmental toxicity study; sprague dawley; Oral; Gavage/Intubation; dose end: 17 GD; group: maternal; systemic / in life observation / body weight / body weight + systemic / in life observation / food consumption / food consumption
rat [10] = conditions: Subchronic oral toxicity in rodents, fischer, Feed, dose end: 13 week, group: systemic, systemic / clinical chemistry / alanine aminotransferase (alt/sgpt) / alanine aminotransferase (alt/sgpt) + systemic / clinical chemistry / …
rat [11] = conditions: Prenatal developmental toxicity study, sprague dawley, Oral, Gavage/Intubation, dose end: 15 GD
rat [12] = conditions: Subchronic oral toxicity in rodents, fischer, Feed, dose end: 13 week, group: systemic, systemic / in life observation / body weight / body weight gain + systemic / in life observation / food consumption / food consumption + …
rat [13] = conditions: Prenatal developmental toxicity study, sprague dawley, Oral, Gavage/Intubation, dose end: 15 GD; remark: listed apart in the source
[14] = group: developmental, developmental / developmental malformation / bone / incomplete ossification + systemic / in life observation / body weight / fetal weight
[15] = group: maternal, systemic / in life observation / body weight / body weight + systemic / in life observation / body weight / body weight gain + systemic / in…
[16] = group: developmental, systemic / in life observation / body weight / fetal weight
[17] = group: maternal, systemic / in life observation / body weight / body weight gain + systemic / in life observation / food consumption / food consumption
[18] = systemic / in life observation / clinical signs / emesis + systemic / in life observation / clinical signs / salivation
[19] = systemic / clinical chemistry / triglycerides / triglycerides + systemic / in life observation / body weight / body weight gain + systemic…
[20] = systemic / in life observation / body weight / body weight gain + systemic / in life observation / clinical signs / abnormal respiratory …
[21] = systemic / clinical chemistry / alanine aminotransferase (alt/sgpt) / alanine aminotransferase (alt/sgpt) + systemic / clinical chemistry / …
[22] = systemic / in life observation / clinical signs / abnormal feces + systemic / in life observation / clinical signs / body surface staining…
[23] = systemic / in life observation / body weight / body weight gain + systemic / in life observation / clinical signs / anogenital staining + …
[24] = systemic / in life observation / body weight / body weight gain + systemic / in life observation / clinical signs / red or crusty deposits …
[25] = systemic / in life observation / body weight / body weight gain + systemic / in life observation / clinical signs / [other] + systemic / in …
[26] = group: developmental, developmental / developmental malformation / bone / exencephaly + developmental / developmental malformation / bone / thread-like + …
[27] = group: developmental, developmental / developmental malformation / bone / absent + developmental / developmental malformation / bone / bent + developmental / …
[28] = group: maternal, systemic / in life observation / body weight / body weight gain

## CN1CCN(Cc2cc(-c3ccc4[nH]c(=O)oc4c3)co2)[C@@H](c2ccc(F)cc2)C1.Cl.O [AVE8488]
Rabbit [1]; [14]
  LEL: 150 mg/kg/day
  LOAEL: 150 mg/kg/day
  NEL: 50 mg/kg/day
  NOAEL: 50 mg/kg/day
Rabbit [1]; [15]
  LEL: 150 mg/kg/day
  LOAEL: 150 mg/kg/day
  NEL: 50 mg/kg/day
  NOAEL: 50 mg/kg/day
Rabbit [2]; [16]
  LEL: 100 mg/kg/day
  LOAEL: 100 mg/kg/day
  NEL: 50 mg/kg/day
  NOAEL: 50 mg/kg/day
Rabbit [2]; [17]
  LEL: 100 mg/kg/day
  LOAEL: 100 mg/kg/day
  NEL: 50 mg/kg/day
  NOAEL: 50 mg/kg/day
Dog [3]; systemic / in life observation / clinical signs / emesis + systemic / clinical chemistry / albumin / albumin + systemic / clinical chemistry…
  NOAEL: 5 mg/kg/day
Dog [3]; [18]
  LEL: 1 mg/kg/day
  NEL: < 1 mg/kg/day
Dog [3]; systemic / in life observation / clinical signs / emesis + systemic / in life observation / clinical signs / salivation + systemic / …
  LOAEL: 20 mg/kg/day
Rat [4]; systemic / clinical chemistry / triglycerides / triglycerides + systemic / in life observation / body weight / body weight gain
  LEL: 5 mg/kg/day
Rat [4]; [19]
  NEL: 0.25 mg/kg/day
Rat [4]; [20]
  LOAEL: 50 mg/kg/day
  NOAEL: 5 mg/kg/day
Dog [5]
  LEL: 20 mg/kg/day
  LOAEL: 20 mg/kg/day
  NEL: 5 mg/kg/day
  NOAEL: 5 mg/kg/day
mouse; [21]
  LOAEL: > 2000 mg/kg/day
  NOAEL: ≥ 2000 mg/kg/day
mouse; [22]
  LEL: 50 mg/kg/day
  NEL: < 50 mg/kg/day
Rat [6]; [23]
  LOAEL: > 150 mg/kg/day
  NOAEL: ≥ 150 mg/kg/day
Rat [6]; [24]
  LEL: 1 mg/kg/day
  NEL: < 1 mg/kg/day
Rat [7]
  LEL: 3.7 mg/kg/day
  LOAEL: 25 mg/kg/day
  NEL: 0.79 mg/kg/day
  NOAEL: 3.7 mg/kg/day
Rat [8]; [19]
  LOAEL: 7 mg/kg/day
  NOAEL: 1 mg/kg/day
Rat [8]; [25]
  LEL: 1 mg/kg/day
  NEL: < 1 mg/kg/day
Rat [9]
  LEL: 10 mg/kg/day
  LOAEL: 10 mg/kg/day
  NEL: 1 mg/kg/day
  NOAEL: 1 mg/kg/day

## CC(C)[NH3+].O=C([O-])COc1ccc(Cl)cc1Cl [2,4-D, isopropylamine salt]
Rat [10]
  LEL: 187 mg/kg/day
  LOAEL: 187 mg/kg/day
  NEL: 28 mg/kg/day
  NOAEL: 28 mg/kg/day
Rat [11]; [26]
  LEL: 190 mg/kg/day
  LOAEL: 190 mg/kg/day
  NEL: 65 mg/kg/day
  NOAEL: 65 mg/kg/day
Rat [11]; [17]
  LEL: 190 mg/kg/day
  LOAEL: 190 mg/kg/day
  NEL: 65 mg/kg/day
  NOAEL: 65 mg/kg/day
Rat [12]
  LEL: 127 mg/kg/day
  LOAEL: 127 mg/kg/day
  NEL: 19 mg/kg/day
  NOAEL: 19 mg/kg/day
Rat [13]; [27]
  LEL: 100 mg/kg/day
  LOAEL: 100 mg/kg/day
  NEL: 32.5 mg/kg/day
  NOAEL: 32.5 mg/kg/day
Rat [13]; [28]
  LEL: 32.5 mg/kg/day
  LOAEL: 32.5 mg/kg/day
  NEL: < 32.5 mg/kg/day
  NOAEL: < 32.5 mg/kg/day
